In patent US20100254902A1, “STABILIZATION OF RADIOPHARMACEUTICALS” (priority 2008, published 2010):

Assay: Radiochemical purity (RCP) of [^18F]FDG composition by TLC, stability testing
Protocol: Radiochemical purity of [^18F]FDG composition samples was determined at end of synthesis (EOS) and at Expiry i.e. after 10 hours storage at 22° C.±3° C. to determine stability of the composition.
To a series of vials was added an amount of stabilizer dissolved in Buffer.
At EOS (within 2 hours), a 100-fold dilution of the test solution was prepared by addition of a 10 μl sample to a 990 μl volume of water for injection. After mixing, a 2 μl sample was applied to a TLC strip.
At 10 hours after synthesis, a 10-fold dilution was made by addition of a 20 μl sample to a 180 μl volume of water for injection. After mixing, a 3 μl sample was applied to a TLC strip.
Within 1 to 3 hours after manufacture, radiochemical purity (RCP) was determined by TLC. The vials were stored at 22° C.±3° C. and at 10 hours after synthesis, RCP was again determined by TLC.

Structure (SMILES) | RCP at EOS+10 h, difference GA versus ethanol (Example 5, vial 6 versus vial 5) | stabiliser quality compared with ethanol (conclusion) (Example 5, vial 6 versus vial 5, approximately 2 mg/ml stabilizer) | effect of increasing amounts of gentisic acid on stabilisation of [^18F]FDG (Examples 2-4, batches <50 GBq at EOS, ranges 0.1-0.5, 0.5-1 and 1-2 mg/ml) | stabilising effect on [^18F]FDG composition (conclusion) (Example 1, additives 2.5-20 mg/ml acetone or ethanol, 3-6 mg/ml gentisic acid)
O=C(O)c1cc(O)ccc1O [gentisic acid, 2,5-dihydroxybenzoic acid] | 1% | better stabiliser than ethanol | the higher amount was found to be more effective | –
CC(C)=O [Acetone, reference compound] | – | – | – | slight stabilising effect
